In publication PMC9784957 (Viruses, 2022):
Read-outs that look alike come from different tables or passages of the source.

What was measured:
[1] = target: T1, gp41 hydrophobic pocket (FeII(env2.0)3) (Human immunodeficiency virus type 1 group M subtype B, UniProt P04578); test: Fluorescence intensity binding affinity assay, displacement of C18FL from FeII; set-up: species or system HIV-1; details: for Increase in affinity for the HP of STP ester compared to acid, change in IC50: ester vs acid
[2] = Resazurin cell viability assay run concomitantly with the fusion assays; format: cell-based; details: human, TZM-bl cells, approximated
[3] = test system: HIV-1 HXB2 Env pseudotyped virus; test: Virus-cell fusion (infectivity) assay, HXB2 Env pseudotyped virus, TZM-bl cells; format: cell-based; details: for EC50 / EC90 / IC50: Human immunodeficiency virus 1, HXB2, TZM-bl; for EC50: read-out: Antiviral Activity EC50; for EC90: read-out: Antiviral Activity EC90; for IC50: read-out: IC50 HXB2
[4] = test system: HIV-1 JRFL Env pseudotyped virus; test: Virus-cell fusion assay, JRFL Env pseudotyped virus; format: cell-based
HXB2 pseudotyped virus = test: microbe, parasite or virus in culture; format: cell-based, HIV-1; details: for Increase in IC50 (loss of activity) when compound added 2 h after virus: HXB2 pseudotyped virus
[5] = test system: Ampho-MLV Env pseudotyped virus; test: Virus-cell fusion assay, Ampho-MLV Env pseudotyped virus; format: cell-based
[6] = target: T1, gp41 hydrophobic pocket (FeII(env2.0)3); details: equilibrium binding to the HP; cited from earlier work
[7] = test system: HXB2 Env mediated cell-cell fusion; set-up: method as in earlier work; details: cell-cell fusion assay; cited from earlier work
[8] = test system: gp41 hydrophobic pocket metallopeptide with Lys-574 replaced with norleucine; format: binding, HIV-1; details: Nle-574 receptor vs Lys-574 receptor
[9] = test system: HXB2 Env mediated cell-cell fusion; test: Cell-cell fusion assay, HL2/3 effector cells and TZM-bl target cells; format: cell-based, HIV-1; details: for Potency enhancement against cell-cell fusion upon STP esterification: ester vs acid; for IC50: Human immunodeficiency virus 1, HXB2, read-out: IC50 (CCF)
[10] = test system: HIV-1 HXB2 Env pseudotyped virus; set-up: method as in earlier work; details: virus-cell fusion assay using lab adapted strain HXB2; cited from earlier work
Aqueous solubility = format: physicochemical
TZM-bl cells = test: Resazurin cell viability assay run concomitantly with the fusion assays; format: cell-based; details: at 100 µM, Ampho-MLV Env experiment
[11] = in antiviral assay, read-out: Antiviral Activity CC50
[12] = in cell-cell fusion assay, read-out: Inhibition of Cell-Cell Fusion CC50
[13] = ester vs acid, pseudoviral infectivity

T1 sequence (P04578 565-584): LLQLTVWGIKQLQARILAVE

| Structure (SMILES) | Ki [1] | Increase in affinity for the HP of STP ester compared to acid, change in IC50 [1] | CC50 [2, 11] | CC50 [2, 12] | EC50 [3] | EC90 [3] | Improvement of antiviral activity (EC50) by STP esterification [3, 13] | Increase in IC50 (loss of activity) when compound added 2 h after virus (HXB2 pseudotyped virus) | other results |
| --- | --- | --- | --- | --- | --- | --- | --- | --- | --- |
| CCOC(=O)c1cc(O)n(-c2ccc(C(=O)Oc3c(F)c(F)c(S(=O)(=O)O)c(F)c3F)cc2)n1 [Compound 3-STP] | ~20 µM | 10 fold | > 40 µM | > 40 µM | 9 ± 2 µM | 44 ± 15 µM | > 10 fold |  | Reduction in efficacy against JRFL Env compared to HXB2 Env [4]: 4 fold; activity at 40 µM (HXB2 pseudotyped virus; Human immunodeficiency virus 1, HXB2, 2 h, read-out: Residual activity when added after 2 h): 12%; Activity against Ampho-MLV Env pseudotyped particles [5]: no activity |
| COC(=O)c1cccc(Cn2ccc3ccc(-c4ccc5ccn(Cc6cccc(C(=O)O)c6)c5c4)cc32)c1 [Compound 1] |  | no change | 22 ± 3 µM | > 10 µM | 3.2 ± 1.6 µM | 17 ± 13 µM | greater than 10 fold | 2 fold | Ki [6]: 1 ± 0.5 µM; IC50 [7]: 0.4 µM; Increase in KI on replacing Lys-574 with norleucine [8]: 5 fold; Potency enhancement against cell-cell fusion upon STP esterification [9]: about 2 fold; IC50 [10]: 3 µM |
| Cc1ccnc2c1NC(=O)c1cccnc1N2C1CC1 [nevirapine, reference compound] |  |  |  |  |  |  |  | 2.7 fold |  |
| CCOC(=O)c1cc(O)n(-c2ccc(C(=O)O)cc2)n1 [Compound 3] | 177 ± 12 µM | 10 fold | > 100 µM | > 100 µM | > 100 µM |  | greater than 10 fold |  | IC50 [3]: > 100 µM; IC50 HXB2 ([3]; virus-cell fusion assay using lab adapted strain HXB2): No measurable antiviral potency; Aqueous solubility (Aqueous solubility): high aqueous solubility; IC50 [9]: > 100 µM |
| COC(=O)c1cccc(Cn2ccc3ccc(-c4ccc5ccn(Cc6cccc(C(=O)Oc7c(F)c(F)c(S(=O)(=O)O)c(F)c7F)c6)c5c4)cc32)c1 [Compound 1-STP] |  |  | 20 ± 3 µM | > 10 µM | 0.3 ± 0.2 µM | 2.9 ± 1.6 µM | 10 fold | 14 fold | EC90 difference, STP ester compared to acid [3, 13]: 14 fold; Increase in KI on replacing Lys-574 with norleucine [8]: 6 fold |
| Cn1ncc2ccc(-c3ccc4cnn(Cc5ccc(F)c(C(=O)Oc6c(F)c(F)c(S(=O)(=O)O)c(F)c6F)c5)c4c3)cc21 [Compound 2-STP] | ~10 µM | 3 fold | ≥ 100 µM | ≥ 200 µM | 5 ± 4 µM | 59 ± 22 µM | 7 fold | 14 fold | Cytotoxicity (TZM-bl cells): 40%; Reduction in efficacy against JRFL Env compared to HXB2 Env [4]: 2 fold; Activity against Ampho-MLV Env pseudotyped particles [5]: artifact of the 40% cytotoxicity at 100 µM; Increase in IC50 on Nle-574 substitution [8]: 2.2 fold |
| Cn1ncc2ccc(-c3ccc4cnn(Cc5ccc(F)c(C(=O)O)c5)c4c3)cc21 [Compound 2] | 25 ± 5 µM | 3 fold | ≥ 356 µM | ≥ 113 µM | 35 ± 7 µM | 800 ± 190 µM | 7 fold | 2 fold | IC50 [3]: 35 µM; IC50 [9]: ≥ 50 µM; Potency enhancement against cell-cell fusion upon STP esterification [9]: 7 fold |
| c1cc(CN2CCCNCCNCCCNCC2)ccc1CN1CCCNCCNCCCNCC1 [AMD3100, reference compound] |  |  |  |  |  |  |  |  | Residual efficacy when added 2 h after virus (HXB2 pseudotyped virus; at 50X EC50): 5% |
